Measurements reported in ChEMBL document CHEMBL3785027 (Eur J Med Chem, 2016).

Tests used:
Format in all cases: functional, cell-based
[1] = Cytotoxicity against human KBVIN cells after 72 hrs by sulforhodamine B colorimetric assay
A549 = experiment: Cytotoxicity against human A549 cells after 72 hrs by sulforhodamine B colorimetric assay; conditions: A549, 72 h
KB = experiment: Cytotoxicity against human KB cells after 72 hrs by sulforhodamine B colorimetric assay

| SMILES | IC50 [1] [nM] | IC50 (A549) [nM] | IC50 (KB) [nM] |
| --- | --- | --- | --- |
| CC[C@@]1(OC(=O)CN/C(Cc2ccc(OC)cc2)=N/S(=O)(=O)c2ccc(C)cc2)C(=O)OCc2c1cc1n(c2=O)Cc2cc3ccccc3nc2-1 | 26.3 | – | – |
| CCc1c2c(nc3ccc(O)cc13)-c1cc3c(c(=O)n1C2)COC(=O)[C@@]3(CC)OC(=O)CN/C(Cc1ccc(OC)cc1)=N/S(=O)(=O)c1ccc(C)cc1 | 28.2 | 21.8 | 4.5 |
| CC[C@@]1(OC(=O)CN/C(Cc2ccc(OC)cc2)=N/S(=O)(=O)c2ccc(Cl)cc2)C(=O)OCc2c1cc1n(c2=O)Cc2cc3ccccc3nc2-1 | 24.8 | 16.5 | 73 |
| CC[C@@]1(OC(=O)CCN/C(Cc2ccc(OC)cc2)=N\S(=O)(=O)c2ccc(C)cc2)C(=O)OCc2c1cc1n(c2=O)Cc2cc3ccccc3nc2-1 | 527 | 88.9 | 622 |
| CC[C@@]1(OC(=O)CN/C(Cc2ccc(OC)cc2)=N/S(=O)(=O)c2ccc(C)cc2)C(=O)OCc2c1cc1n(c2=O)Cc2cc3c([N+](=O)[O-])cccc3nc2-1 | 4580 | 6270 | 7040 |
| CC[C@@]1(OC(=O)CN/C(Cc2ccc(OC)cc2)=N/S(=O)(=O)c2ccc(C)cc2)C(=O)OCc2c1cc1n(c2=S)Cc2cc3ccccc3nc2-1 | 159 | 140 | 233 |
| CC[C@@]1(OC(=O)CN/C(Cc2ccc(OC)cc2)=N/S(=O)(=O)CC)C(=O)OCc2c1cc1n(c2=O)Cc2cc3ccccc3nc2-1 | 78.6 | 48.1 | 64.2 |
| CC[C@@]1(OC(=O)CN/C(Cc2ccc(C)cc2)=N/S(=O)(=O)c2ccc(C)cc2)C(=O)OCc2c1cc1n(c2=O)Cc2cc3ccccc3nc2-1 | 27.5 | 17.4 | 73.9 |
| CC[C@@]1(OC(=O)CN/C(Cc2ccc(OC)cc2)=N/S(=O)(=O)c2cccnc2)C(=O)OCc2c1cc1n(c2=O)Cc2cc3ccccc3nc2-1 | 123 | 76.5 | 93.8 |
| CC[C@@](O)(C(=O)NCCN/C(Cc1ccc(OC)cc1)=N/S(=O)(=O)c1ccc(C)cc1)c1cc2n(c(=O)c1COC(C)=O)Cc1cc3ccccc3nc1-2 | 947 | 688 | 937 |
| CCc1c2c(nc3ccccc13)-c1cc3c(c(=O)n1C2)COC(=O)[C@@]3(CC)OC(=O)C(C)N/C(Cc1ccc(Cl)cc1)=N/S(=O)(=O)c1ccc(C)cc1 (stereo partly specified) | 16 | 12.9 | 13.3 |
| CC[C@@]1(OC(=O)CN/C(Cc2ccc(Cl)cc2)=N/S(=O)(=O)c2ccc(C)cc2)C(=O)OCc2c1cc1n(c2=O)Cc2cc3ccccc3nc2-1 | 64.8 | 54.9 | 100 |
| CCc1c2c(nc3ccccc13)-c1cc3c(c(=O)n1C2)COC(=O)[C@@]3(CC)OC(=O)CN/C(Cc1ccc(OC)cc1)=N/S(=O)(=O)c1ccc(C)cc1 | 10.1 | 6.8 | 9.4 |
| CC[C@@]1(OC(=O)CN/C(Cc2ccc(OC)cc2)=N/S(=O)(=O)c2ccc(C)cc2)C(=O)OCc2c1cc1n(c2=O)Cc2cc3cc(O)ccc3nc2-1 | 101 | 64 | 63.1 |
| CC[C@@]1(OC(=O)CN/C(Cc2ccc(OC)cc2)=N/S(=O)(=O)c2ccc3ccccc3c2)C(=O)OCc2c1cc1n(c2=O)Cc2cc3ccccc3nc2-1 | 25.6 | 16.2 | 68.7 |
| CCc1c2c(nc3ccccc13)-c1cc3c(c(=O)n1C2)COC(=O)[C@@]3(CC)OC(=O)CN/C(Cc1ccc(OC)cc1)=N/S(C)(=O)=O | 25.8 | 19.8 | 16.7 |
| CCc1c(OP(=O)(O)OC)ccc2nc3c(cc12)Cn1c-3cc2c(c1=O)COC(=O)[C@@]2(CC)OC(=O)CN/C(Cc1ccc(OC)cc1)=N/S(=O)(=O)c1ccc(C)cc1 | 305 | 344 | 141 |
| CC[C@@]1(OC(=O)CN/C(Cc2ccc(OC)cc2)=N/S(=O)(=O)N(C)C)C(=O)OCc2c1cc1n(c2=O)Cc2cc3ccccc3nc2-1 | 45.3 | 40.8 | 66.5 |

| SMILES | IC50 [1] [nM] | IC50 (A549) [nM] | IC50 (KB) [nM] |
| --- | --- | --- | --- |
| CCCCS(=O)(=O)/N=C(\Cc1ccc(OC)cc1)NCC(=O)O[C@]1(CC)C(=O)OCc2c1cc1n(c2=O)Cc2cc3ccccc3nc2-1 | 43.5 | 34.9 | 54.2 |
| CC[C@@]1(OC(=O)CN/C(C[Si](C)(C)C)=N/S(=O)(=O)c2ccc(C)cc2)C(=O)OCc2c1cc1n(c2=O)Cc2cc3ccccc3nc2-1 | 39.9 | 30.2 | 57.8 |
| CC[C@@]1(OC(=O)CN/C(Cc2ccccc2)=N/S(=O)(=O)c2ccc(C)cc2)C(=O)OCc2c1cc1n(c2=O)Cc2cc3c([N+](=O)[O-])cccc3nc2-1 | 9130 | 8270 | 9050 |
| CC[C@@]1(OC(=O)CN/C(Cc2ccc(OC)cc2)=N/S(=O)(=O)c2ccc(C)cc2)C(=O)OCc2c1cc1n(c2=O)Cc2cc3cccc([N+](=O)[O-])c3nc2-1 | 10700 | 13900 | 11300 |
| CC[C@@]1(OC(=O)CCCN/C(Cc2ccc(OC)cc2)=N\S(=O)(=O)c2ccc(C)cc2)C(=O)OCc2c1cc1n(c2=O)Cc2cc3ccccc3nc2-1 | 955 | 448 | 830 |
| CC[C@@]1(OC(=O)CN/C(Cc2ccc(OC)cc2)=N/S(=O)(=O)c2ccc(C)cc2)C(=O)OCc2c1cc1n(c2=O)C(OC)c2cc3ccccc3nc2-1 (stereo partly specified) | 6880 | 7310 | 7560 |
| CCc1c2c(nc3ccccc13)-c1cc3c(c(=O)n1C2)COC(=O)[C@@]3(CC)OC(=O)C(C)N/C(Cc1ccc(OC)cc1)=N/S(C)(=O)=O (stereo partly specified) | 98.2 | 61 | 95.2 |
| CC[C@@]1(OC(=O)CN/C(Cc2ccc(OC)cc2)=N/S(C)(=O)=O)C(=O)OCc2c1cc1n(c2=O)Cc2cc3ccccc3nc2-1 | 63.5 | 54 | 105 |
| CCc1c2c(nc3ccccc13)-c1cc3c(c(=O)n1C2)COC(=O)[C@@]3(CC)OC(=O)C(C)N/C(Cc1ccc(OC)cc1)=N/S(=O)(=O)c1ccc(C)cc1 (stereo partly specified) | 22.7 | 16 | 84.2 |
| CC[C@@]1(OC(=O)C(C)N/C(Cc2ccc(OC)cc2)=N/S(=O)(=O)c2ccc(C)cc2)C(=O)OCc2c1cc1n(c2=S)Cc2cc3ccccc3nc2-1 (stereo partly specified) | 151 | 86.9 | 109 |
| CC[C@@]1(OC(=O)CN/C(Cc2ccc(OC)cc2)=N/S(=O)(=O)c2ccc(C)cc2)CC(=O)OCc2c1cc1n(c2=O)Cc2cc3ccccc3nc2-1 | 263 | 83.6 | 232 |
| CCc1c2c(nc3ccccc13)-c1cc3c(c(=O)n1C2)COC(=O)[C@@]3(CC)OC(=O)CN/C(Cc1ccccc1)=N/S(=O)(=O)c1ccc(C)cc1 | 18.5 | 7.2 | 89.5 |
| CC[C@@]1(OC(=O)CN/C(Cc2ccc(OC)cc2)=N/S(=O)(=O)c2cccs2)C(=O)OCc2c1cc1n(c2=O)Cc2cc3ccccc3nc2-1 | 32.5 | 37.5 | 55 |
| CCc1c2c(nc3ccccc13)-c1cc3c(c(=O)n1C2)COC(=O)[C@@]3(CC)OC(=O)C(C)N/C(Cc1ccccc1)=N/S(=O)(=O)c1ccc(C)cc1 (stereo partly specified) | 19.5 | 10.2 | 83.6 |
| CC[C@@]1(OC(=O)CN/C(Cc2ccc(OC)cc2)=N/S(=O)(=O)c2ccc([N+](=O)[O-])cc2)C(=O)OCc2c1cc1n(c2=O)Cc2cc3ccccc3nc2-1 | 14.9 | 14.9 | 14.9 |
| CC[C@@]1(OC(=O)CN/C(Cc2ccc(OC)cc2)=N/S(=O)(=O)c2ccc(F)cc2)C(=O)OCc2c1cc1n(c2=O)Cc2cc3ccccc3nc2-1 | 22.5 | 14.1 | 16.9 |
| CC[C@@]1(OC(=O)CN/C(Cc2ccc(OC)cc2)=N/S(=O)(=O)c2ccc(OC)cc2)C(=O)OCc2c1cc1n(c2=O)Cc2cc3ccccc3nc2-1 | 22.2 | 31.9 | 51.6 |
| CCc1c2c(nc3ccc(OC(=O)N4CCC(N5CCCCC5)CC4)cc13)-c1cc3c(c(=O)n1C2)COC(=O)[C@]3(O)CC [IRINOTECAN] | > 20000 | 9480 | 9830 |
